In patent publication US20220220128A1, “HETEROCYCLIC COMPOUNDS AS KINASE INHIBITORS, COMPOSITIONS COMPRISING THE HETEROCYCLIC COMPOUND, AND METHODS OF USE THEREOF” (JS Innopharm (Shanghai) Ltd, priority 2019, published 2022):

Experiments:
[1] = molecular target: T1, human RET kinase (Homo sapiens, UniProt P07949); assay: RET Kinase Assay (LanthaScreen TR-FRET enzymatic assay); type: biochemical; conditions: 7 nM RET, 23 μM ATP
T1 construct: purchased Carna 08-159
How it was run: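 TR-FRET enzymatic read-out using 23 μM ATP, 3 μM FAM-P2 substrate and 7 nM human RET, after 15-min compound pretreatment at room temperature and a 1 h reaction at 28° C in HEPES pH 7.5 buffer. Percent of DMSO control fitted to nonlinear sigmoid curves for IC50.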

[2] = test system: TT cells; assay: TT Cell Proliferation Assay (WST-8, 8 days); type: cell-based; conditions: Homo sapiens, TT, 192 h, growth inhibition in TT cells, read-out: TT Cellular Activity
How it was run: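 IC50 was derived from absorbance at 450 nm after 5 h with WST-8, following 8 days' incubation at 37 °C. Final compound levels spanned 0.0005–5 μM in 0.5% DMSO. TT cells were seeded at 6,000 per well in 10% FBS RPMI-1640 and left to attach for 24 h beforehand.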

[3] = molecular target: T2, human KDR kinase (Homo sapiens, UniProt P35968); assay: KDR Kinase Assay (LanthaScreen TR-FRET enzymatic assay); type: biochemical; conditions: 1.2 nM KDR, 92 μM ATP
T2 construct: purchased Carna 08-191
How it was run: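 TR-FRET enzymatic format: after 15-min room-temperature compound pretreatment, 1.2 nM human KDR phosphorylated 3 μM FAM-P22 with 92 μM ATP (HEPES pH 7.5, 28° C., one hour). Reactions were quenched with EDTA buffer. IC50 came from nonlinear sigmoid fits of percent-of-vehicle signal ratios.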

T2 sequence (P35968 20-1356): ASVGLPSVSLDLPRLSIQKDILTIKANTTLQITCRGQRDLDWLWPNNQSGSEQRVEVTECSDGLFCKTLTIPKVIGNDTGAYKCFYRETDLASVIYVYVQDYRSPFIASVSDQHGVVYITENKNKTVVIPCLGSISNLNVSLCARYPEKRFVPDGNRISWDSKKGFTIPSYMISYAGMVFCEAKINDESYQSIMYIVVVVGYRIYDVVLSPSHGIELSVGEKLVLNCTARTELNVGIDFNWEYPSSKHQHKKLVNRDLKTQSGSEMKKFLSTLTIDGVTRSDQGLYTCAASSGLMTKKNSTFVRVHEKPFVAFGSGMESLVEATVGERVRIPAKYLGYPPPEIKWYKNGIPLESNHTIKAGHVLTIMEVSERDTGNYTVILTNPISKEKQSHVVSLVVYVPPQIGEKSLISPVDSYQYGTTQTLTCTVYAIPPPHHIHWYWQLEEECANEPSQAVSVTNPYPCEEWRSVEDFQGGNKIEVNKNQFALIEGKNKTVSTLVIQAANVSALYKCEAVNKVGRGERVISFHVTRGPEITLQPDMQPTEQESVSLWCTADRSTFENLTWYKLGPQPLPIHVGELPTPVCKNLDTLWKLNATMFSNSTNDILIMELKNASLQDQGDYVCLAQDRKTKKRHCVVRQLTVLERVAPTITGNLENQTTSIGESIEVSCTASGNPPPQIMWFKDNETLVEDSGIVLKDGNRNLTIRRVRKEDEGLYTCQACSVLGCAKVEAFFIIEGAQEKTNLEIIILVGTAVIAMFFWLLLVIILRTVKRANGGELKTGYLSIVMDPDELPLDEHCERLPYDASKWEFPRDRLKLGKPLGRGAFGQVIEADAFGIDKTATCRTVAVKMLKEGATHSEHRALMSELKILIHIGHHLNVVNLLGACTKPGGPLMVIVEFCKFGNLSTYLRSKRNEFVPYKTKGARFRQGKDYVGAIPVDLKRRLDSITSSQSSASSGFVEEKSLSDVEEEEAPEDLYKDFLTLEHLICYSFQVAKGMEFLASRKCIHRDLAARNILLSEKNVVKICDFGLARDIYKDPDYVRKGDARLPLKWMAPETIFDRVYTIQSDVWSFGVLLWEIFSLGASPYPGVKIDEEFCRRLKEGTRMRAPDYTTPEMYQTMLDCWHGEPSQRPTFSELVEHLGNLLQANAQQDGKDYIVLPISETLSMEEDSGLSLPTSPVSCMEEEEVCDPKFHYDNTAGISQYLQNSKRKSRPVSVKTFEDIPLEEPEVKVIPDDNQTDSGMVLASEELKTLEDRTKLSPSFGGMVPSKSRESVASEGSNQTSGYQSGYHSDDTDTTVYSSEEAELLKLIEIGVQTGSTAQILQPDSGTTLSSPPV
T1 sequence (P07949 29-1114): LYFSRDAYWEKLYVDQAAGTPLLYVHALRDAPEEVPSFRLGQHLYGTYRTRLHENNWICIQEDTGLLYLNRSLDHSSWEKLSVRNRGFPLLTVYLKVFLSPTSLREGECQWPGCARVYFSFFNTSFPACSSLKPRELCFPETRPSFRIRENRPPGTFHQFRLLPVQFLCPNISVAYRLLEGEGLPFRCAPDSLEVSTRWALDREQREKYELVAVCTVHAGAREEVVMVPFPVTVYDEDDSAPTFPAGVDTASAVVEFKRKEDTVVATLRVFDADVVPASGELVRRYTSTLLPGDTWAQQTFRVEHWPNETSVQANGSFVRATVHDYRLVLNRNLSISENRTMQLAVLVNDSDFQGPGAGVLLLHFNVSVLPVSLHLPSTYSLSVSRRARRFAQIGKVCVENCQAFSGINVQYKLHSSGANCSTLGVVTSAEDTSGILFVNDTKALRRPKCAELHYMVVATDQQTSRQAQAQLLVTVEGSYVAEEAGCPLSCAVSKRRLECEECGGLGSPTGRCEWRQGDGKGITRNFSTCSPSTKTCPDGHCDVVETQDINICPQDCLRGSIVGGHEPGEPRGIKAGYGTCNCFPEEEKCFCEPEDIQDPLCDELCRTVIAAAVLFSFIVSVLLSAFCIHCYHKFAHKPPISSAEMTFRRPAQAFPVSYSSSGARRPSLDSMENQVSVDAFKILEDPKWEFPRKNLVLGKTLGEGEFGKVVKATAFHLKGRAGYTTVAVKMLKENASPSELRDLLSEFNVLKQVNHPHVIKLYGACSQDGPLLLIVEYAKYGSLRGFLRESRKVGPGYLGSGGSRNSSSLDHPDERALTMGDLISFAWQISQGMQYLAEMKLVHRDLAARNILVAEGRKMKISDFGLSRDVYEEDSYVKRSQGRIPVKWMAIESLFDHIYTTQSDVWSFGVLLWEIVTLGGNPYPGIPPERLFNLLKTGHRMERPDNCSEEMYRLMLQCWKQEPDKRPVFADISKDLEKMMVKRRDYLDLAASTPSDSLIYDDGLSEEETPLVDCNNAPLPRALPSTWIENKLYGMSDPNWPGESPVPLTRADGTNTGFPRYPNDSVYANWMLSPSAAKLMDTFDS

SMILES	IC50 [1] [nM]	IC50 [2] [nM]	IC50 [3] [nM]
CC(C)(O)COc1cc(-c2ccc(N3C4CC5CC3CC(NS(C)(=O)=O)(C5)C4)nc2)c2c(C#N)cnn2c1 [Example 131, N-((1R,3S,5s,7s)-2-(5-(3-cyano-6-(2-hydroxy-2-methylpropoxy)pyrazolo[1,5-a]pyidin-4-yl)pyridin-2-yl)-2-azaadamantan-5-yl)methanesulfonamide]	≤ 10	10 to 50	50 to 100
Cn1ccc(-c2cc(-c3ccc(N4C[C@@H]5C[C@@](C)(NC(=O)c6ncccc6C#N)C[C@@H]5C4)nc3)c3c(C#N)cnn3c2)n1 [Example 198, 3-cyano-N-((3aR,5s,6aS)-2-(5-(3-cyano-6-(1-methyl-1H-pyrazol-3-yl)pyrazolo[1,5-a]pyridin-4-yl)pyridin-2-yl)-5-methyloctahydrocyclopenta[c]pyrrol-5-yl)picolinamide]	10 to 50	10 to 50	50 to 100
Cc1ccc(Cl)c(C(=O)NC[C@@H]2[C@H]3CN(c4ccc(-c5cc(-c6cnn(C)c6)cn6ncc(C#N)c56)cn4)C[C@@H]23)n1 [Example 82, 3-chloro-N-(((1R,5S,6s)-3-(5-(3-cyano-6-(1-methyl-1H-pyrazol-4-yl)pyrazolo[1.5-a]pyridin-4-yl)pyridin-2-yl)-3-azabicyclo[3.1.0]hexan-6-yl)methyl)-6-methylpicolinamide]	≤ 10	≤ 10	≤ 10
Cn1cc(-c2cc(-c3ccc(N4C[C@@H]5[C@@H](CNC(=O)c6cc(F)ccc6Cl)[C@@H]5C4)nc3)c3c(C#N)cnn3c2)cn1 [Example 80, 2-chloro-N-(((1R,5S,6s)-3-(5-(3-cyano-6-(1-methyl-1H-pyrazol-4-yl)pyrazolo[1,5-a]pyridin-4-yl)pyridin-2-yl)-3-azabicyclo[3.1.0]hexan-6-yl)methyl)-5-fluorobenzamide]	≤ 10	≤ 10	≤ 10
COc1ccc(C(=O)N[C@H]2[C@@H]3CN(c4ccc(-c5cc(-c6cnn(C)c6)cn6ncc(C#N)c56)cc4)C[C@@H]32)cn1 [Example 15, N-((1R,5S,6s)-3-(4-(3-cyano-6-(1-methyl-1H-pyrazol-4-yl)pyrazolo[1,5-a]pyridin-4-yl)phenyl)-3-azabicyclo[3.1.0]hexan-6-yl)-6-methoxynicotinamide]	10 to 50	10 to 50	50 to 100
CC(C)C(=O)N[C@H]1[C@@H]2CN(c3ccc(-c4cc(-c5cnn(C)c5)cn5ncc(C#N)c45)cn3)C[C@@H]21 [Example 31, N-((1R,5 S,6s)-3-(5-(3-cyano-6-(1-methyl-1H-pyrazol-4-yl)pyrazolo[1,5-a]pyridin-4-yl)pyridin-2-yl)-3-azabicyclo[3.1.0]hexan-6-yl)isobutyramide]	≤ 10	50 to 100	10 to 50
Cn1cc(-c2cc(-c3ccc(N4C[C@@H]5[C@H](C4)[C@@H]5NC(=O)Nc4ccccc4)nc3)c3c(C#N)cnn3c2)cn1 [Example 36, 1-((1R,5S,6r)-3-(5-(3-cyano-6-(1-methyl-1H-pyrazol-4-yl)pyrazolo[1,5-a]pyridin-4-yl)pyridin-2-yl)-3-azabicyclo[3.1.0]hexan-6-yl)-3-phenylurea]	≤ 10	10 to 50	≤ 10
CC(C)(O)COc1cc(-c2ccc(N3C[C@@H]4[C@@H](CNC(=O)c5ncccc5Cl)[C@@H]4C3)nc2)c2c(C#N)cnn2c1 [Example 95, 3-chloro-N-(((1R,5S,6s)-3-(5-(3-cyano-6-(2-hydroxy-2-methylpropoxy)pyrazolo[1,5-a]pyridin-4-yl)pyridin-2-yl)-3-azabicyclo[3.1.0]hexan-6-yl)methyl)picolinamide]	≤ 10	10 to 50	> 100
CC(C)CC(=O)N[C@H]1[C@@H]2CN(c3ccc(-c4cc(-c5cnn(C)c5)cn5ncc(C#N)c45)cn3)C[C@@H]21 [Example 25, N-((1R,5S,6s)-3-(5-(3-cyano-6-(1-methyl-1H-pyrazol-4-yl)pyrazolo[1,5-a]pyridin-4-yl)pyridin-2-yl)-3-azabicyclo[3.1.0]hexan-6-yl)-3-methylbutanamide]	≤ 10	10 to 50	10 to 50
CCOc1cc(-c2cnc(N3C[C@@H]4[C@H](C3)[C@H]4NC(=O)c3ncccc3Cl)cn2)c2c(C#N)cnn2c1 [Example 42, 3-chloro-N-((1R,5S,6s)-3-(5-(3-cyano-6-ethoxypyrazolo[1,5-a]pyridin-4-yl)pyrazin-2-yl)-3-azabicyclo[3.1.0]hexan-6-yl)picolinamide]	50 to 100	> 100	> 100
Cn1cc(-c2cc(-c3cnc(N4C[C@@H]5CN(S(=O)(=O)c6c(F)cccc6Cl)C[C@@H]5C4)cn3)c3c(C#N)cnn3c2)cn1 [Example 182, 4-(5-((3aR,6aS)-5-((2-chloro-6-fluorophenyl)sulfonyl)hexahdropyrrolo[3,4-c]pyrrol-2(1H)-yl)pyrazin-2-yl)-6-(1-methyl-1H-pyrazol-4-yl)pyrazolo[1,5-a]pyridine-3-carbonitrile]	≤ 10	≤ 10	10 to 50
CCOc1cc(-c2ccc(N3C[C@@H]4C[C@@](C)(NC(=O)c5c(C)cccc5Cl)C[C@@H]4C3)nc2)c2c(C#N)cnn2c1 [Example 63, 2-chloro-N-((3aR,5s,6aS)-2-(5-(3-cyano-6-ethoxypyrazolo[1,5-a]pyridin-4-yl)pyridin-2-yl)-5-methyloctahydrocyclopenta[c]pyrrol-5-yl)-6-methylbenzainide]	≤ 10	10 to 50	50 to 100
CC(O)COc1cc(-c2ccc(N3C[C@H]4CN(C(=O)c5ncccc5Cl)C[C@H]4C3)nc2)c2c(C#N)cnn2c1 (stereo partly drawn) [Example 8, 4-(6-((3aR,6aS)-5-(3-chloropicolinoyl)hexahydropyrrolo[3,4-c]pyrrol-2(1H)-yl)pyridin-3-yl)-6-(2-hydroxypropoxy)pyrazolo[1,5-a]pyridine-3-carbonitrile]	≤ 10	10 to 50	> 100
CCOc1cc(-c2ccc(N3C[C@H]4CN(C(=O)c5ncccc5Cl)C[C@H]4C3)nc2)c2c(C#N)cnn2c1 [Example 6, 4-(6-((3aR,6aS)-5-(3-chloropicolinoyl)hexahydropyrrolo[3,4-c]pyrrol-2(1H)-yl)pyridin-3-yl)-6-ethoxypyrazolo[1,5-a]pyridine-3-carbonitrile]	≤ 10	10 to 50	> 100
COc1ccc(C(=O)N2C[C@@H]3CN(c4ccc(-c5cc(-c6cnn(C)c6)cn6ncc(C#N)c56)cn4)C[C@@H]3C2)cn1 [Example 1, 4-(6-((3aR,6aS)-5-(6-methoxynicotinoyl)hexahydropyrrolo[3,4-c]pyrrol-2(1H)-yl)pyridin-3-yl)-6-(1-methyl-1H-pyrazol-4-yl)pyrazolo[1,5-a]pyridine-3-carbonitrile]	≤ 10	10 to 50	10 to 50
Cn1cc(-c2cc(-c3cnc(N4C[C@@H]5C[C@@](C)(NC(=O)c6ncccc6F)C[C@@H]5C4)cn3)c3c(C#N)cnn3c2)cn1 [Example 142, N-((3aR,5s,6aS)-2-(5-(3-cyano-6-(1-methyl-1H-pyrazol-4-yl)pyrazolo[1,5-a]pyridin-4-yl)pyrazin-2-yl)-5-methyloctahydrocyclopenta[c]pyrrol-5-yl)-3-fluoropicolinamide]	≤ 10	≤ 10	10 to 50
Cc1ccc(F)cc1C(=O)N[C@H]1[C@@H]2CN(c3ccc(-c4cc(-c5cnn(C)c5)cn5ncc(C#N)c45)cn3)C[C@@H]21 [Example 26, N-((1R,5S,6s)-3-(5-(3-cyano-6-(1-methyl-1H-pyrazol-4-yl)pyrazolo[1,5-a]pyridin-4-yl)pyridin-2-yl)-3-azabicyclo[3.1.0]hexan-6-yl)-5-fluoro-2-methylbenzamide]	≤ 10	10 to 50	≤ 10
Cn1cc(-c2cc(-c3ccc(N4C[C@@H]5[C@@H](CNC(=O)C(O)c6ccccc6)[C@@H]5C4)nc3)c3c(C#N)cnn3c2)cn1 (stereo partly drawn) [Example 76, N-(((1R,5S,6s)-3-(5-(3-cyano-6-(1-methyl-1H-pyrazol-4-yl)pyrazolo[1,5-a]pyridin-4-yl)pyridin-2-yl)-3-azabicyclo[3.1.0]hexan-6-yl)methyl)-2-hydroxy-2-phenylacetamide]	≤ 10	10 to 50	≤ 10
Cn1cc(-c2cc(-c3ccc(N4C[C@@H]5[C@H](C4)[C@@H]5NC(=O)c4ncccc4Cl)nc3)c3c(C#N)cnn3c2)cn1 [Example 30, 3-chloro-N-((1R,5S,6r)-3-(5-(3-cyano-6-(1-methyl-1H-pyrazol-4-yl)pyrazolo[1,5-a]pyridin-4-yl)pyridin-2-yl)-3-azabicyclo[3.1.0]hexan-6-yl)picolinamide]	≤ 10	10 to 50	10 to 50
CC(C)(O)COc1cc(-c2ccc(N3C[C@@H]4C[C@@](C)(NC(=O)c5ncccc5F)C[C@@H]4C3)nc2)c2c(C#N)cnn2c1 [Example 128, N-((3aR,5s,6aS)-2-(5-(3-cyano-6-(2-hydroxy-2-methylpropoxy)pyrazolo[1,5-a]pyridin-4-yl)pyridin-2-yl)-5-methyloctahydrocyclopenta[c]pyrrol-5-yl)-3-fluoropicolinamide]	≤ 10	10 to 50	10 to 50
